Consider 2 compounds from ChEMBL document CHEMBL1201862, “PubChem BioAssay data set” (2004).

The target of experiment [1] is Beta-adrenergic receptor kinase 1 (Homo sapiens, UniProt P25098). The experiment in a line: aptamer displacement from bead-bound GRK2 – biochemical, cherry pick 1, bead flow cytometry, dose response (AID 504500).
Experiment [2] concerns the target Multidrug resistance protein CDR1 (Candida albicans, UniProt P43071). The experiment in a line: inhibition of Nile Red efflux via Candida CDR1 – S. cerevisiae AD1-8u, singleplex, Cherry Pick1 hits, dose response (AID 588606). The format is functional.
For the next experiment, the target named is Phospholipase A2 (Homo sapiens, UniProt P04054). Format: functional.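 Note: confirmatory dose-response counterscreen on phospholipase A2, testing hits that came from an ultra-high-throughput screen for ATG4B inhibitors.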
Phospholipase A2, sequence (P04054 whole entry): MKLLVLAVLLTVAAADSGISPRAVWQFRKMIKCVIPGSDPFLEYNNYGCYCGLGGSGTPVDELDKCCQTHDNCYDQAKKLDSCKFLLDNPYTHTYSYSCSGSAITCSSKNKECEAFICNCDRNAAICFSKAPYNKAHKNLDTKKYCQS
The target of experiment [3] is Dual specificity tyrosine-phosphorylation-regulated kinase 1A (Rattus norvegicus, UniProt Q63470). The format is biochemical, Homo sapiens.
The target in experiment [4] is T1, Dual specificity protein phosphatase 3 (Homo sapiens, UniProt P51452). Kind of experiment: VHR1 phosphatase inhibitors, primary screen, biochemical, absorbance, uHTS (AID 1654).
T1 sequence (P51452 whole entry): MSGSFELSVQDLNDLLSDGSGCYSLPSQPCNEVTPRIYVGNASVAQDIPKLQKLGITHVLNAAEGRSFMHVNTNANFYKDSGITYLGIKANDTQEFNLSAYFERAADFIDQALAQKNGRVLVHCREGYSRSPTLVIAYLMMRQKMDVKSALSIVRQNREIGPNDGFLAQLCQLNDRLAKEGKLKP
The target of experiment [5] is T1, Dual specificity protein phosphatase 3. The experiment in a line: VHR1 phosphatase inhibitors, biochemical (AID 1878).
The target in experiment [6] is T2, Small ubiquitin-related modifier 1 (Homo sapiens, UniProt P63165). The experiment in a line: SUMO1 protein interaction blockers, potency – biochemical, fluorescence polarization, uHTS hits, dose response (AID 624382). The format is functional. Conditions: read-out: IC50_Mean.
T2 sequence (P63165 whole entry): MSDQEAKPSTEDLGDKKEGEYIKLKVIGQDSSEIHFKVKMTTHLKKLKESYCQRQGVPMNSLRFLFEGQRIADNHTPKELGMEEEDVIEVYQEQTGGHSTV
The target of experiment [7] is T3, Dual specificity protein phosphatase 6 (Rattus norvegicus, UniProt Q64346).
T3 sequence (Q64346 whole entry): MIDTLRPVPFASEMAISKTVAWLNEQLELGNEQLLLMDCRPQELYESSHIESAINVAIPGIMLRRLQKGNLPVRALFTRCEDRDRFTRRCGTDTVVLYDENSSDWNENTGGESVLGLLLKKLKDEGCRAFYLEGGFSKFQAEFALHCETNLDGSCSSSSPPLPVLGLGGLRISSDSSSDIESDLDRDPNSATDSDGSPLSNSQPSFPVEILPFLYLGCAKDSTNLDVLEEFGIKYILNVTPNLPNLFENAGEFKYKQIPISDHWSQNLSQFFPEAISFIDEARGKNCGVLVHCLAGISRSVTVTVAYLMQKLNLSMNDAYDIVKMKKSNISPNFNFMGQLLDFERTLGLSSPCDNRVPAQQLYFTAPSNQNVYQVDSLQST
The experiment in a line: inhibition of rat DUSP6 enzyme activity – biochemical, in vitro, primary screen (AID 425).

Experiment [8] addresses T4, Rac GTPase-activating protein 1 (Homo sapiens, UniProt Q9H0H5).
T4 sequence (Q9H0H5 whole entry): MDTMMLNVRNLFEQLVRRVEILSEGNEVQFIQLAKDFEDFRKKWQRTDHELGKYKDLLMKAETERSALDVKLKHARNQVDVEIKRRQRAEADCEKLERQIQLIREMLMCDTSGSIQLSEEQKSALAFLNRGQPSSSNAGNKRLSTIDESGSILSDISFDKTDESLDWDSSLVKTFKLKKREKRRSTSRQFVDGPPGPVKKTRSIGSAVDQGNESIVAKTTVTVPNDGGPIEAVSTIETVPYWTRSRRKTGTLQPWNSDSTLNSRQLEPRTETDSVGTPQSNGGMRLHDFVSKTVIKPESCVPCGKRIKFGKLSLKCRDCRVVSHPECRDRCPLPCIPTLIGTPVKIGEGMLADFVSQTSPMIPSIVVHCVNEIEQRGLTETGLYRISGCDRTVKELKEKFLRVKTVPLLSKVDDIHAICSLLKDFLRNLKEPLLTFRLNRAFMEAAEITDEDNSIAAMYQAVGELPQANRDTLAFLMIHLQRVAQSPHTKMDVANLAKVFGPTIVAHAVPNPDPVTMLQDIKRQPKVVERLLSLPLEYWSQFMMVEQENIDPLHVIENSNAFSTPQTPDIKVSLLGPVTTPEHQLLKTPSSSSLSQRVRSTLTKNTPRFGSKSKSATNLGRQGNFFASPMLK
Kind of experiment: blockers of MgcRacGAP-driven Rac1 GTP hydrolysis – biochemical, ADP Hunter fluorescence, primary and confirmatory, confirmation (AID 624330). Format: functional.

The target in another experiment is Cysteine protease ATG4B (Homo sapiens, UniProt Q9Y4P1). The format is functional.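 Note: Fluorescence-based dose-response confirmation assay measuring inhibition of ATG4B activity.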
Cysteine protease ATG4B, sequence (Q9Y4P1 whole entry): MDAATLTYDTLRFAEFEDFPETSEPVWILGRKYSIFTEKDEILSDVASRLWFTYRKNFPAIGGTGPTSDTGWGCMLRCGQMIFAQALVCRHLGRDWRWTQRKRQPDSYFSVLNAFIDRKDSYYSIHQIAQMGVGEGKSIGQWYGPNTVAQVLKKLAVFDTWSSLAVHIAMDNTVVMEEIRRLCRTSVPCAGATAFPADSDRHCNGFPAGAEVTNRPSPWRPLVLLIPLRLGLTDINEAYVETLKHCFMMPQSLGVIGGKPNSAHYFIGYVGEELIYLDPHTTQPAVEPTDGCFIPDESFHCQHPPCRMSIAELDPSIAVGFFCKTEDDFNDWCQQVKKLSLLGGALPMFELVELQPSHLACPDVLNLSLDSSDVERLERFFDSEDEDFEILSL
The target in experiment [9] is T5, Short transient receptor potential channel 4 (Mus musculus, UniProt Q9QUQ5).
T5 sequence (Q9QUQ5 whole entry): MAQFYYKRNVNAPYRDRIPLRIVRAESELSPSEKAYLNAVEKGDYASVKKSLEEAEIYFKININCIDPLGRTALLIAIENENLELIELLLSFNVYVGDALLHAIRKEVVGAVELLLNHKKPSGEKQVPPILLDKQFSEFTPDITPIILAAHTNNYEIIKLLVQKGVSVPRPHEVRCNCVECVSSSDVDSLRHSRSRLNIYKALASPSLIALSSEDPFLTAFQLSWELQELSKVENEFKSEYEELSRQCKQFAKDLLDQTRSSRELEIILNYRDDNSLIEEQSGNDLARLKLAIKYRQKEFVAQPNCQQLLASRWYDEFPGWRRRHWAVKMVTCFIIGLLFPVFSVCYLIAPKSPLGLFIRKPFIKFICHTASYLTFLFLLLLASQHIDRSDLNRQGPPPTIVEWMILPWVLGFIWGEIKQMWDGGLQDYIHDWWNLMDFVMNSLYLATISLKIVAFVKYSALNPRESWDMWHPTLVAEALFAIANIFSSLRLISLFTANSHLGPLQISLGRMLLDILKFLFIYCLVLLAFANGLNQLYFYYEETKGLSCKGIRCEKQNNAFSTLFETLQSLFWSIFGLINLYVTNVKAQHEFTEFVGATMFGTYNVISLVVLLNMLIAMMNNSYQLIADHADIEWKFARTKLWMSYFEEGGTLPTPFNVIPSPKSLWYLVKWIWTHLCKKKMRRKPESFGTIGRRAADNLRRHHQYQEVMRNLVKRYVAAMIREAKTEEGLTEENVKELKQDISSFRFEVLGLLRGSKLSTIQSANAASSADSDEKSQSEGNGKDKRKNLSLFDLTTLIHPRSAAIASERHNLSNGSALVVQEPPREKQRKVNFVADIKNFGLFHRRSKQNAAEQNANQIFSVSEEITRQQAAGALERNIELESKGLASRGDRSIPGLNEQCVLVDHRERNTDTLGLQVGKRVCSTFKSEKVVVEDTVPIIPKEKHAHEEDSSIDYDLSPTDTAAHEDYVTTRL
The experiment in a line: calcium entry via TRPC4 opening agents – cell-based, HEK293 TRPC4/mu-opioid, Fluo-4 calcium, dose response (AID 434937). The format is functional.

For experiment [10], the target named is T2, Small ubiquitin-related modifier 1. Kind of experiment: SUMO1 protein-protein binding blockers, potency – biochemical, FRET, dose response (AID 624383). The note with it: read-out: IC50_Mean. Format: functional.
Experiment [11] has as its target Multidrug resistance protein CDR2 (Candida albicans (strain SC5314 / ATCC MYA-2876) (Yeast), UniProt P78595). Kind of experiment: inhibition of Nile Red efflux via Candida CDR2 – S. cerevisiae AD1-8u, singleplex, Cherry Pick1 hits, dose response (AID 588604). The format is functional.
Experiment [12] concerns the target T6, Platelet-activating factor acetylhydrolase 2, cytoplasmic (Mus musculus, UniProt Q8VDG7). The experiment in a line: Late stage assay provider results from the probe development effort to identify inhibitors of PAFAH2: fluorescence-based cell-based gel-based Activity-Based Protein Profiling (ABPP) IC50. [Related pubchem assays (depositor defined):AID492956, AID492969, AID493030]. Format: functional.

In experiment [13] the target is T6, Platelet-activating factor acetylhydrolase 2, cytoplasmic. The experiment in a line: Late stage assay provider results from the probe development effort to identify inhibitors of PAFAH2: Fluorescence-based biochemical gel-based Activity-Based Protein Profiling (ABPP) IC50. [Related pubchem assays (depositor defined):AID492956, AID492969, AID493030].

The source made the active and inactive calls. Some results are limits rather than exact numbers.

T6 sequence (Q8VDG7 whole entry): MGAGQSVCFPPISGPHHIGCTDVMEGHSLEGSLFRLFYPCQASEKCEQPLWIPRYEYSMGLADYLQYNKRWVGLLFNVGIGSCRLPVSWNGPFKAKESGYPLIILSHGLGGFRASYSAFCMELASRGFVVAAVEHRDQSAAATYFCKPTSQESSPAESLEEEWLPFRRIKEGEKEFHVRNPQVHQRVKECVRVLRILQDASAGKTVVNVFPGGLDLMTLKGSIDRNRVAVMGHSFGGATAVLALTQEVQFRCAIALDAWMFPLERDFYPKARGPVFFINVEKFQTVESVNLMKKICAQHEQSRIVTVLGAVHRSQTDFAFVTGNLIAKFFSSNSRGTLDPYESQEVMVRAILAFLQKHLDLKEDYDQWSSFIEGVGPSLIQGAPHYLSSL
Beta-adrenergic receptor kinase 1, sequence (P25098 whole entry): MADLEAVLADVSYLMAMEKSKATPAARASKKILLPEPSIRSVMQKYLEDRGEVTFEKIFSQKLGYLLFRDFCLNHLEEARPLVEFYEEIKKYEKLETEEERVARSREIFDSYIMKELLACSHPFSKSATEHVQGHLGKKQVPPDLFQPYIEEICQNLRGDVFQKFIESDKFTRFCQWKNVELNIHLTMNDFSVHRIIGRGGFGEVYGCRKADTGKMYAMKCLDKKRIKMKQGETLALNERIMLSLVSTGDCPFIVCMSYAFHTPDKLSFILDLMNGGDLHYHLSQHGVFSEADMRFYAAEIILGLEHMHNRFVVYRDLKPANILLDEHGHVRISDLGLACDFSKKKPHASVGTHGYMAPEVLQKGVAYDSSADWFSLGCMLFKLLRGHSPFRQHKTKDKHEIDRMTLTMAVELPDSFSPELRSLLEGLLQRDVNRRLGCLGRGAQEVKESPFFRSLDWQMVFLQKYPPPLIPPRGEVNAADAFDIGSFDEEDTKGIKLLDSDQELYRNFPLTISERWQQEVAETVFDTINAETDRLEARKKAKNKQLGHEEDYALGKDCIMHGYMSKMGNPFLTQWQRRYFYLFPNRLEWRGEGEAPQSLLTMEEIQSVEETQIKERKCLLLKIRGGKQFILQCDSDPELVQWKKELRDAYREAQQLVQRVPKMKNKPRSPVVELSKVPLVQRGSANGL
Multidrug resistance protein CDR2, sequence (P78595 whole entry): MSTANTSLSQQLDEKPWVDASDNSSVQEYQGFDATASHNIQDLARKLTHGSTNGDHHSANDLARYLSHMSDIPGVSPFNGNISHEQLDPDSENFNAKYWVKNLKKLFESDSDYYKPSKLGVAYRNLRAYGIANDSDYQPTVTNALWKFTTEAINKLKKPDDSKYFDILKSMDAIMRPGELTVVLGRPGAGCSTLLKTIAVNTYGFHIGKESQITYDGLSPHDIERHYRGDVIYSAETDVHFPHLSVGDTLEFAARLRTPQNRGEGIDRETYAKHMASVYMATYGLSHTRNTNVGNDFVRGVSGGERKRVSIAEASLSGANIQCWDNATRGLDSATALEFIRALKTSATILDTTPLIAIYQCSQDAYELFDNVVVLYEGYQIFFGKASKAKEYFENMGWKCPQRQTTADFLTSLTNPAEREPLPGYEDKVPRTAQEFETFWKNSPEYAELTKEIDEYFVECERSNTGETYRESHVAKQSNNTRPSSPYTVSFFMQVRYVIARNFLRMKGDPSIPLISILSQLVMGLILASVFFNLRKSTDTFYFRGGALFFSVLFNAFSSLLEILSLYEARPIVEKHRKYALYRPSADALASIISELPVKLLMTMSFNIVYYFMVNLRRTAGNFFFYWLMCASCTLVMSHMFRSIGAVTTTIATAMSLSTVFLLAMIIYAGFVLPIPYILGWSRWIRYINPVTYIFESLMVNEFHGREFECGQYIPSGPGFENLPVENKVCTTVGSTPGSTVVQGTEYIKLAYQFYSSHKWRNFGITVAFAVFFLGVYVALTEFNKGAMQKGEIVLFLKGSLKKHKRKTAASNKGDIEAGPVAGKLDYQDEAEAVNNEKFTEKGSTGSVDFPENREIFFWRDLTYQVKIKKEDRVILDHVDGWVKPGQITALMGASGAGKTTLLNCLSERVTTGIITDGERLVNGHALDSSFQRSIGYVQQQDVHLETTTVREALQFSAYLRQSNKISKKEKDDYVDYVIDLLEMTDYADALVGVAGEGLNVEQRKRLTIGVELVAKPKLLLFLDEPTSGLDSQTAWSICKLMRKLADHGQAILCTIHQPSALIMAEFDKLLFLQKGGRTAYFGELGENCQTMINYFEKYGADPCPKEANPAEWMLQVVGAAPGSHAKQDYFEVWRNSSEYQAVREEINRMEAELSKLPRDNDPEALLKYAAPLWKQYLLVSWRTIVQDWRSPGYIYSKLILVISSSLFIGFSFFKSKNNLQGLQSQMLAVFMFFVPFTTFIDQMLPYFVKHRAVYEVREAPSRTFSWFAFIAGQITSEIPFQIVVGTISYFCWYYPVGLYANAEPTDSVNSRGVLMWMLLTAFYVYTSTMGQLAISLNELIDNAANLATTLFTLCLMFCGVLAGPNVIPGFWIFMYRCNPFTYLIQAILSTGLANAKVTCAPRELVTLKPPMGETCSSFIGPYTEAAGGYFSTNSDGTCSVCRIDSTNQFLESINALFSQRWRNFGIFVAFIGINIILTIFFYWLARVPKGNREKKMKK
Multidrug resistance protein CDR1, sequence (P43071 whole entry, looked up): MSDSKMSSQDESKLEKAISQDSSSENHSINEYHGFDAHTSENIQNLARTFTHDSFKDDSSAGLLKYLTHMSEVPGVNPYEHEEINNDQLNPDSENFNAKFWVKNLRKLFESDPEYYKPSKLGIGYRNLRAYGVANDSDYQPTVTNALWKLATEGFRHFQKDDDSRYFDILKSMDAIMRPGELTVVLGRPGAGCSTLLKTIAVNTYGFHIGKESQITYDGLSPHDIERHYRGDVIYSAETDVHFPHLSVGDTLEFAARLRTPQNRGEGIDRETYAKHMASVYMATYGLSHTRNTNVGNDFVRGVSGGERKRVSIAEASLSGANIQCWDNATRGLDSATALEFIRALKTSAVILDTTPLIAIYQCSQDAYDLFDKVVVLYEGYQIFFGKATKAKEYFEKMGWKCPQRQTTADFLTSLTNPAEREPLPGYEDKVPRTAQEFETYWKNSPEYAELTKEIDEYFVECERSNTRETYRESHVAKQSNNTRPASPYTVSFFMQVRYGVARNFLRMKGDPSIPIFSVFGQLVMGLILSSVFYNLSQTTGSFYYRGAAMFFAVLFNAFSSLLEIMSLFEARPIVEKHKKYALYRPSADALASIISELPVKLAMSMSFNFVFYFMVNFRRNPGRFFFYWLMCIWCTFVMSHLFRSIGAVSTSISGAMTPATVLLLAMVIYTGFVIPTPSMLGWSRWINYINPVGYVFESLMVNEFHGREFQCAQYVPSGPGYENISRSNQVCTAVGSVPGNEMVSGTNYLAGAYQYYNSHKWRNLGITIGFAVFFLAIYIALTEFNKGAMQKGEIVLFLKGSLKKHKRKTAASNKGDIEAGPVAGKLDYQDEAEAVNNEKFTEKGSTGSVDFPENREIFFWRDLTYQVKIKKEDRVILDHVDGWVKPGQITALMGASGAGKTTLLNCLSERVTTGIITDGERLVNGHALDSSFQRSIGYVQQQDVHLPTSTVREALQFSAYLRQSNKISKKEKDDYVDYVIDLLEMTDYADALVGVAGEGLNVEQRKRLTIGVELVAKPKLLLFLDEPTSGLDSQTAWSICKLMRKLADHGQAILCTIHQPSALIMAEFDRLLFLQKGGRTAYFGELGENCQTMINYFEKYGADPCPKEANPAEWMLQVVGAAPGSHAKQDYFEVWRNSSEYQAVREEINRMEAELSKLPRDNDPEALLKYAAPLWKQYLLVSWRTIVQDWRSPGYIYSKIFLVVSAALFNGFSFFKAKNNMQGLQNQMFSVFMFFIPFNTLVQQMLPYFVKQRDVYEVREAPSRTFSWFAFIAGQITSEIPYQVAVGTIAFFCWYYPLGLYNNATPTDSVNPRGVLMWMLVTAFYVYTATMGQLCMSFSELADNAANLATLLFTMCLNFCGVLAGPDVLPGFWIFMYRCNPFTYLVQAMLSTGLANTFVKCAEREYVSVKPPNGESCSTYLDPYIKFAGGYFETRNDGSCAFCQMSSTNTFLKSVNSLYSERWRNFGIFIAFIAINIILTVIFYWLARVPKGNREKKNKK

Consider `O=C(O)c1ccc(-c2ccc(/C=c3/sc4nc5ccccc5n4c3=O)o2)cc1Cl`, for which the EC50 in [1] was 9.71 µM (inactive); in experiment [2], 12.2 µM (active); in [9] it was 5.96 µM (active); in experiment [11], 20.3 µM (active). Further, the IC50 on Phospholipase A2 is 21.9 µM (inactive); in [4] it was 5.86 µM (active); in experiment [5] it was 2.89 µM (active); in experiment [6] it was > 66.6 µM (inactive); in experiment [7], 123 µM (not active); in experiment [8] it was 48.4 µM (active). Moreover, the IC50 on Cysteine protease ATG4B is 12.2 µM (active); in [10], 11.5 µM (active). Moreover, in experiment [3], the AC50 is 2 µM (active).
With `O=C(N1CCCC1)n1ncc(-c2ccc(-c3ccccc3)cc2)n1`, the results for the IC50 in experiment [12] and in experiment [13] were 170 µM (active) and 0.003 µM (active), respectively.
